Measured values from BindingDB's records for patent US20250059220 (Merck Sharp & Dohme, 2025).

Experiments:
[1] = target: T1, Tyrosine-protein phosphatase non-receptor type 1 (Homo sapiens, UniProt P18031); test: PTPN1 Biochemical Assay
T1 sequence (P18031 whole entry): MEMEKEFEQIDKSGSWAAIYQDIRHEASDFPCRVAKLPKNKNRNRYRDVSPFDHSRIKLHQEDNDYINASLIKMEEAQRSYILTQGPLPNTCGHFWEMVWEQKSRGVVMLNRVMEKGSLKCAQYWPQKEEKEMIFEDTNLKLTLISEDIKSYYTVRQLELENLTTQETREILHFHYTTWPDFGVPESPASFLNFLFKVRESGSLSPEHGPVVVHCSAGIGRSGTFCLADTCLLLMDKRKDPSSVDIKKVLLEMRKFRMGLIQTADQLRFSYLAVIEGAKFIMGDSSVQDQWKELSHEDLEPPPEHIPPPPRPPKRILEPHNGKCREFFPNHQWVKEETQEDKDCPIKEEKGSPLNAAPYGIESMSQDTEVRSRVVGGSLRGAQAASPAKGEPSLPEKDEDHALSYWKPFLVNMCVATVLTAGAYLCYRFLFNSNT
Method: Test compounds were dissolved in DMSO, and 10-point serial 3-fold dilution series in DMSO were prepared in Echo Qualified 384-well Polypropylene Microplates (Labcyte, San Jose, CA) (top concentration 50 µM). […] 5 μl of assay buffer was added into the low control. The plate was incubated for 30 minutes at room temperature. Subsequently, 5 μl of 100 µM DiFMUP (6,8-difluoro-4-methylumbelliferyl phosphate) solution (prepared in assay buffer from 10 mM stock in DMSO) was added to the assay plate and incubated for 1 hour at room temperature. For detection, assay plates were read on SpectraMax Microplate Reader (Molecular Devices), with Excitation wavelength=360 nm and Emission wavelength=460 nm.

[2] = target: T2, Tyrosine-protein phosphatase non-receptor type 2 (Homo sapiens, UniProt P17706); test: PTPN2 Biochemical Assay
T2 sequence (P17706 whole entry): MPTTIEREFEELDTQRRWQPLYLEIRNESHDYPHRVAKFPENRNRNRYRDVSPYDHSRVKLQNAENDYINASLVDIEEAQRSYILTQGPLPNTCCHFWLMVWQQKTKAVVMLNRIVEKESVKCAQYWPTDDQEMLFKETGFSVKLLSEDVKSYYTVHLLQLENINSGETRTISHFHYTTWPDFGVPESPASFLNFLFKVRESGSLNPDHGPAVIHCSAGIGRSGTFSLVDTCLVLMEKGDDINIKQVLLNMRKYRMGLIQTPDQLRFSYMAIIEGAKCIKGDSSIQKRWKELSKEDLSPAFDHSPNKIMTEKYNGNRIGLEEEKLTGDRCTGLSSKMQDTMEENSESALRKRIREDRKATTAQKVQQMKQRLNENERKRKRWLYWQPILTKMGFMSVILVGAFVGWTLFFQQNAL
Method: Test compounds were dissolved in DMSO, and 10-point serial 3-fold dilution series in DMSO were prepared in Echo Qualified 384-well Polypropylene Microplates (Labcyte, San Jose, CA) (top concentration 50 µM). Assay plates (384-well low volume black plates; Corning #3820, Corning, NY) were prepared by dispensing 50 nL of test compound, and DMSO (for high and low controls) by ECHO acoustic dispenser (Labcyte, San Jose CA). This was followed by addition of 5 μL of 0.2 nM human PTPN2 (1-387) solution (prepared in the assay buffer, 50 mM Tris pH 7.4, 150 mM NaCl, 0.01% Tween20, 0.5 mM dithiothreitol) to all wells except the low control. 5 μl of assay buffer was added into the low control, then the plate was incubated for 30 minutes at room temperature. Subsequently, 5 μl of 100 µM DiFMUP (6,8-difluoro-4-methylumbelliferyl phosphate) solution (prepared in assay buffer from 10 mM stock in DMSO) was added to the assay plate and incubated for 1 hour at room temperature. For detection, assay plates were read on SpectraMax Microplate Reader (Molecular Devices), with Excitation wavelength=360 nm and Emission wavelength=460 nm.

In the case of Cc1ccc(COc2cc(C(N)=O)cc3c(Br)c(C(F)(F)P(=O)(O)O)sc23)cc1C [US20250059220, Compound 358], the IC50 [1] is reported as 106 nM and the IC50 [2] is reported as 54.8 nM.

Work on CS(=O)(=O)CCCOc1cc(C(N)=O)cc2c(C3CC3)c(C(F)(F)P(=O)(O)O)sc12 [US20250059220, Compound 458] yielded an IC50 [1] of 78.6 nM and an IC50 [2] of 68.1 nM.
